Target: Human immunodeficiency virus type 1 protease (Human immunodeficiency virus 1, UniProt Q72874, Q7K)
Assay: Inhibition of HIV1 protease Q7K mutant by FRET method

`COc1cccc(S(=O)(=O)N(CC2CC2)C[C@@H](O)[C@H](Cc2ccccc2)NC(=O)c2cccc(C)n2)c1` gave a Ki (read-out: Ki) of 14.6 µM and a Ki (read-out: pKi (converted)) of 14.5 µM.

`CC(=O)/C=C/C(=O)N[C@@H](Cc1ccccc1)[C@H](O)CN(Cc1cccs1)S(=O)(=O)c1cnoc1C` gave a Ki (read-out: Ki) of 26.3 µM and a Ki (read-out: pKi (converted)) of 26.3 µM.

Reference: ChEMBL document CHEMBL1143396, “Additivity in the analysis and design of HIV protease inhibitors” (J Med Chem, 2009)
